From patent publication US3943129A, “7-Amino-3-(1,3,4-thiadiazolinylthio-methyl) cephalosporins” (SmithKline Corporation, priority 1974, dated 1976) come the findings set out here.

Converted amounts (≈) assume the structure as drawn. Where only a bound is given, the exact number is not on record here.

In data set [1] the test system is Sal. paratyphi ATCC 12176. Briefly: Minimum inhibitory concentration (MIC). In kind it is cell-based. The conditions noted are these: Salmonella enterica.
Data set [2] has as its system E. coli. In words: In vivo ED50 in infected mice, oral. The following applies: Escherichia coli, in Mus musculus.
The subject of data set [3] is Kleb. pneumonia. Briefly: In vivo ED50 in infected mice, oral. The following applies: Mus musculus.
For data set [4], the system named is S. aureus HH 127. Briefly: Minimum inhibitory concentration (MIC). The conditions noted are these: Staphylococcus aureus, HH127.
Data set [5] has as its system S. aureus SK 23390. In words: Minimum inhibitory concentration (MIC). The conditions noted are these: Staphylococcus aureus, SK23390.
For data set [6], the system named is Strep. pyog. C203. In words: Minimum inhibitory concentration (MIC).
In data set [7] the test system is Strep. faecalis HH 34358. In words: Minimum inhibitory concentration (MIC). The following applies: Enterococcus faecalis, HH34358.
Data set [8] deals with E. coli SK 12140. In words: Minimum inhibitory concentration (MIC). The conditions noted are these: Escherichia coli, SK12140.
Data set [9] concerns E. coli HH 33779. In words: Minimum inhibitory concentration (MIC). The conditions noted are these: Escherichia coli, HH33779.
For data set [10], the system named is Kleb. pneumo. SK 4200. In words: Minimum inhibitory concentration (MIC).
Data set [11] relates to Kleb. pneumo. SK 1200. Briefly: Minimum inhibitory concentration (MIC).
Data set [12] concerns Pseudomonas sp. HH 63. In words: Minimum inhibitory concentration (MIC). The conditions noted are these: SP.HH63.
Data set [13] concerns Entero. aerogenes ATCC13048. In words: Minimum inhibitory concentration (MIC). The following applies: Klebsiella aerogenes.
For data set [14], the system named is Serrantia marcescens ATCC 13880. In words: Minimum inhibitory concentration (MIC).
In data set [15] the test system is Staph. aurcus villaluz. Briefly: Minimum inhibitory concentration (MIC).
Data set [16] concerns E. coli SK 12140. Briefly: In vivo ED50 in infected mice, subcutaneous. The following applies: Escherichia coli, SK12140, in Mus musculus, sc.
Data set [17] deals with Kleb. pneumo. SK 4200. Briefly: In vivo ED50 in infected mice, subcutaneous. The following applies: Mus musculus, sc.
Data set [18] is described as follows: Stability in solution. In kind it is physicochemical. The following applies: neutral or basic pH, vs any prior art compounds that were tested.
Data set [19] is described as follows: Stability to copper ion. In kind it is physicochemical. The conditions noted are these: vs tested prior art compounds.
The test system of data set [20] is Entero. cloaca Pa.S.L.969. Briefly: Minimum inhibitory concentration (MIC).
Data set [21] has as its system Shig. paradys. HH 127. In words: Minimum inhibitory concentration (MIC).

In general, MIC refers to the lowest concentration that inhibits growth of the organism. A lower MIC goes with greater potency. The term ED50 denotes the midpoint of the dose-response relation. With `NC(C(=O)NC1C(=O)N2C(C(=O)O)=C(CSc3n[nH]c(=O)[nH]3)CSC12)c1ccc(O)cc1` (stereo not shown) [Compound IV], the MIC in data set [1] was 6.3 mg/L (≈ 13.2 µM); in data set [4], 6.3 mg/L (≈ 13.2 µM); in data set [5] it was 6.3 mg/L (≈ 13.2 µM); in [6] it was 0.1 mg/L (≈ 0.209 µM); in [7] it was 100 mg/L (≈ 209 µM); in data set [8] it was 6.3 mg/L (≈ 13.2 µM). For the same compound, the MIC is 25 mg/L (≈ 52.2 µM) in [9]; 6.3 mg/L (≈ 13.2 µM) in data set [10]; 12.5 mg/L (≈ 26.1 µM) in data set [11]; over 200 mg/L in [12]; 12.5 mg/L (≈ 26.1 µM) in data set [13]; over 200 mg/L in data set [14]. Further, the minimum inhibitory concentration (MIC) in [15] stood at 25 mg/L (≈ 52.2 µM). For the same compound, the median effective dose (ED50) in data set [2] worked out at 9.5 mg/kg; in [3], 6.2 mg/kg; in [16], 4 mg/kg; in data set [17], 2.8 mg/kg.

Regarding `NC(C(=O)NC1C(=O)N2C(C(=O)O)=C(CSc3n[nH]c(=O)[nH]3)CSC12)c1ccccc1` (stereo not shown) [Compound I], the MIC is 1.6 mg/L (≈ 3.46 µM) in data set [1]; 1.6 mg/L (≈ 3.46 µM) in [4]; 1.6 mg/L (≈ 3.46 µM) in data set [5]; 0.1 mg/L (≈ 0.216 µM) in data set [6]; 50 mg/L (≈ 108 µM) in data set [7]; 3.1 mg/L (≈ 6.7 µM) in data set [8]. The minimal inhibitory concentration (MIC) is 6.3 mg/L (≈ 13.6 µM) in data set [9]; 3.1 mg/L (≈ 6.7 µM) in [10]; 3.1 mg/L (≈ 6.7 µM) in [11]; over 200 mg/L in [12]; 6.3 mg/L (≈ 13.6 µM) in [13]; 12.5 mg/L (≈ 27 µM) in data set [20]. The MIC is 200 mg/L (≈ 432 µM) in data set [14] and 12.5 mg/L (≈ 27 µM) in data set [15]. In data set [18], the stability in solution result was “more stable in solution at neutral or basic pH than any prior art compounds that were tested”. Besides, in data set [19], the “stability to copper ion” value was “greater stability to copper ion than tested prior art compounds”. The ED50 in [16] amounted to 2.9 mg/kg; in data set [17], 7 mg/kg.

In the case of `CCn1c(SCC2=C(C(=O)O)N3C(=O)C(NC(=O)C(N)c4ccccc4)C3SC2)n[nH]c1=O` (stereo not shown) [III], the MIC stood at 3.1 mg/L (≈ 6.32 µM) in data set [1]; 3.1 mg/L (≈ 6.32 µM) in data set [4]; 3.1 mg/L (≈ 6.32 µM) in data set [5]; 0.1 mg/L (≈ 0.204 µM) in data set [6]; 25 mg/L (≈ 51 µM) in data set [7]; 12.5 mg/L (≈ 25.5 µM) in data set [8]. The MIC in data set [9] is 12.5 mg/L (≈ 25.5 µM); in data set [10], 6.3 mg/L (≈ 12.8 µM); in [11], 6.3 mg/L (≈ 12.8 µM); in data set [12], over 200 mg/L; in [13], 25 mg/L (≈ 51 µM); in data set [20], 25 mg/L (≈ 51 µM). The MIC in data set [14] was determined as 200 mg/L (≈ 408 µM); in data set [15] it was 25 mg/L (≈ 51 µM). Also, the 50% effective dose (ED50) in data set [16] stood at 29 mg/kg; in data set [17] it was 92 mg/kg.

For the compound `Cn1c(SCC2=C(C(=O)O)N3C(=O)C(NC(=O)C(N)c4ccccc4)C3SC2)n[nH]c1=O` (stereo not shown) [II], the minimal inhibitory concentration (MIC) is 3.1 mg/L (≈ 6.51 µM) in [1]; 6.3 mg/L (≈ 13.2 µM) in data set [4]; 3.1 mg/L (≈ 6.51 µM) in data set [5]; 0.1 mg/L (≈ 0.21 µM) in data set [6]; 50 mg/L (≈ 105 µM) in [7]; 12.5 mg/L (≈ 26.2 µM) in data set [8]. Moreover, the MIC in data set [9] was 25 mg/L (≈ 52.5 µM); in data set [10], 6.3 mg/L (≈ 13.2 µM); in data set [11], 6.3 mg/L (≈ 13.2 µM); in data set [12], over 200 mg/L; in data set [13] it was 25 mg/L (≈ 52.5 µM); in data set [20], 50 mg/L (≈ 105 µM). For the same compound, the MIC is over 200 mg/L in [14] and 25 mg/L (≈ 52.5 µM) in [15]. The values for the ED50 in data set [16] and in data set [17] were 12.5 mg/kg and 11.5 mg/kg, respectively.

With `O=C(Cc1cccs1)N[C@@H]1C(=O)N2C(C(=O)[O-])=C(C[n+]3ccccc3)CS[C@H]12` [S-I, cephaloridine, reference compound], the MIC in data set [1] is 1.6 mg/L (≈ 3.85 µM); in data set [4], 0.4 mg/L (≈ 0.963 µM); in data set [5], 0.1 mg/L (≈ 0.241 µM); in [6], 0.1 mg/L (≈ 0.241 µM); in data set [7], 6.3 mg/L (≈ 15.2 µM); in data set [8], 3.1 mg/L (≈ 7.46 µM). The MIC in [9] was 6.3 mg/L (≈ 15.2 µM); in data set [10] it was 3.1 mg/L (≈ 7.46 µM); in data set [11], 3.1 mg/L (≈ 7.46 µM); in data set [12], over 200 mg/L; in data set [21], 1.6 mg/L (≈ 3.85 µM); in data set [13], over 200 mg/L. The MIC in data set [20] was over 200 mg/L; in [14], over 200 mg/L; in [15], 12.5 mg/L (≈ 30.1 µM). In addition, the ED50 in data set [16] was found to be 6 mg/kg; in data set [17], 7.6 mg/kg.

On to `CC1=C(C(=O)O)N2C(=O)[C@@H](NC(=O)[C@H](N)c3ccccc3)[C@H]2SC1` [S-II, cephalexin, reference compound], for which the MIC was 3.1 mg/L (≈ 8.92 µM) in data set [1]; 3.1 mg/L (≈ 8.92 µM) in [4]; 1.6 mg/L (≈ 4.61 µM) in [5]; 0.1 mg/L (≈ 0.288 µM) in data set [6]; 50 mg/L (≈ 144 µM) in [7]; 6.3 mg/L (≈ 18.1 µM) in data set [8]. Besides, the MIC in [9] was 6.3 mg/L (≈ 18.1 µM); in data set [10], 6.3 mg/L (≈ 18.1 µM); in data set [11], 3.1 mg/L (≈ 8.92 µM); in data set [12], over 200 mg/L; in [13], 12.5 mg/L (≈ 36 µM); in data set [20], 6.3 mg/L (≈ 18.1 µM). Also, the MIC in data set [14] and in data set [15] was 50 mg/L (≈ 144 µM) throughout. Moreover, the ED50 in data set [16] came out at 12 mg/kg; in [17], 25 mg/kg.

In the case of `O=C(O)C1=C(CSc2n[nH]c(=S)s2)CSC2C(NC(=O)C(O)c3ccccc3)C(=O)N12` (stereo not shown) [VII], the MIC amounted to 0.8 mg/L (≈ 1.61 µM) in [1]; 0.8 mg/L (≈ 1.61 µM) in data set [4]; 0.4 mg/L (≈ 0.805 µM) in [5]; 0.2 mg/L (≈ 0.403 µM) in data set [6]; 25 mg/L (≈ 50.3 µM) in [7]; 1.6 mg/L (≈ 3.22 µM) in data set [8]. Besides, the MIC is 3.1 mg/L (≈ 6.24 µM) in [9]; 1.6 mg/L (≈ 3.22 µM) in data set [10]; 0.8 mg/L (≈ 1.61 µM) in data set [11]; over 200 mg/L in data set [12]; 12.5 mg/L (≈ 25.2 µM) in data set [13]; 200 mg/L (≈ 403 µM) in data set [14]. For the same compound, inhibition of growth in data set [15] (MIC) required 12.5 mg/L (≈ 25.2 µM). Besides, the figures for the ED50 in data set [16] and in [17] were 21.5 mg/kg and 64 mg/kg, respectively.

As to `Cn1c(SCC2=C(C(=O)O)N3C(=O)C(NC(=O)C(O)c4ccccc4)C3SC2)n[nH]c1=O` (stereo not shown) [VI], the MIC in data set [1] stood at 3.1 mg/L (≈ 6.49 µM); in data set [4], 1.6 mg/L (≈ 3.35 µM); in data set [5] it was 0.4 mg/L (≈ 0.838 µM); in data set [6], 0.1 mg/L (≈ 0.209 µM); in data set [7], 25 mg/L (≈ 52.4 µM); in data set [8], 6.3 mg/L (≈ 13.2 µM). Further, the minimum inhibitory concentration (MIC) was 12.5 mg/L (≈ 26.2 µM) in data set [9]; 3.1 mg/L (≈ 6.49 µM) in data set [11]; over 200 mg/L in data set [12]; 12.5 mg/L (≈ 26.2 µM) in [13]; over 200 mg/L in data set [14]; 12.5 mg/L (≈ 26.2 µM) in data set [15]. Besides, the ED50 in [16] is 9 mg/kg; in data set [17], 21 mg/kg.

On to `O=C(O)C1=C(CSc2n[nH]c(=O)[nH]2)CSC2C(NC(=O)C(O)c3ccccc3)C(=O)N12` (stereo not shown) [V], for which the minimal inhibitory concentration (MIC) in data set [1] was determined as 1.6 mg/L (≈ 3.45 µM); in data set [4], 0.8 mg/L (≈ 1.73 µM); in data set [5], 0.4 mg/L (≈ 0.863 µM); in data set [6] it was 0.1 mg/L (≈ 0.216 µM); in [7], 50 mg/L (≈ 108 µM); in [8] it was 3.1 mg/L (≈ 6.69 µM). For the same compound, the MIC is 6.3 mg/L (≈ 13.6 µM) in data set [9]; 3.1 mg/L (≈ 6.69 µM) in data set [10]; 1.6 mg/L (≈ 3.45 µM) in data set [11]; over 200 mg/L in [12]; 12.5 mg/L (≈ 27 µM) in data set [13]; 12.5 mg/L (≈ 27 µM) in [20]. Besides, the MIC in data set [14] was over 200 mg/L; in data set [15], 25 mg/L (≈ 53.9 µM). For the same compound, the results for the ED50 in data set [16] and in data set [17] were 4 mg/kg and 8.7 mg/kg, respectively.
